From patent US4215110A, “Method of treating hypertension” (Merck & Co., Inc., priority 1978, dated 1980) come the findings set out here.

In this experiment the test system is spontaneously hypertensive (SH) rats. Briefly: antihypertensive activity test in spontaneously hypertensive (SH) rats. The format is in vivo, rat. The note with it: administered intraperitoneally. As to the method:
The present tripeptides have antihypertensive activity. This antihypertensive activity was determined using a test procedure which involved administration of representative compounds to spontaneously hypertensive (SH) rats.

As to `NC(=O)[C@@H]1CCCN1C(=O)[C@H](Cc1c[nH]cn1)NC(=O)[C@@H]1CCC(=O)N1` [TRH, L-pyroglutamyl-L-histidyl-L-proline-amide], the antihypertensive activity result is recorded as “significant antihypertensive activity”.
